Measurements taken from BindingDB's records for doi:10.7270/Q2N014W6 (Burnham Center for Chemical Genomics, 2008).

biological target: T1, Bcl-2-related protein A1 (Mus musculus, UniProt Q07440); assay: Bfl-1 inhibitors, primary screen, biochemical, fluorescence polarization, FITC-Bid, mouse (AID 432); conditions: pH 7; 23 °C
T1 sequence (Q07440 whole entry): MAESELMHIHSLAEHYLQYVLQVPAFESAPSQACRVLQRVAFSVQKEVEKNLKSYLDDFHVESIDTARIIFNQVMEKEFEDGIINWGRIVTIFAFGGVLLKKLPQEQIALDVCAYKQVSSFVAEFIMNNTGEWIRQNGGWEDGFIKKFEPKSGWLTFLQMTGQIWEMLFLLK

IC50, > 100 µM:
CN1CCC2=C(C#N)C(=N)C(C#N)(C#N)[C@H](c3cccc(Cl)c3)C2C1 (stereo partly drawn) [(8S)-6-amino-8-(3-chlorophenyl)-2-methyl-1,3,8,8a-tetrahydroisoquinoline-5,7,7-tricarbonitrile]
OCCCc1nc2n(n1)C(c1cccs1)CC(c1ccccc1)=N2 (stereo not drawn) [3-(5-phenyl-7-thiophen-2-yl-1,7-dihydro-[1,2,4]triazolo[1,5-a]pyrimidin-2-yl)-1-propanol]
COc1ccc(N2C(=O)C(=Nc3c(C)n(C)n(-c4ccccc4)c3=O)C(Cl)C2=O)cc1 (stereo not drawn) [3-chloranyl-4-[(1,5-dimethyl-3-oxidanylidene-2-phenyl-pyrazol-4-yl)amino]-1-(4-methoxyphenyl)pyrrole-2,5-dione]
CCCN1CCC2=C(C#N)C(=N)C(C#N)(C#N)C(c3cccc(OC)c3OC)C2C1 (stereo not drawn) [6-amino-8-(2,3-dimethoxyphenyl)-2-propyl-1,3,8,8a-tetrahydroisoquinoline-5,7,7-tricarbonitrile]
Cc1ccc(C2C3CN(C(C)C)CCC3=C(C#N)C(=N)C2(C#N)C#N)cc1 (stereo not drawn) [SMR000034220]
CN1CCC2=C(C#N)C(=N)C(C#N)(C#N)C(c3cccc(Cl)c3Cl)C2C1 (stereo not drawn) [6-azanyl-8-[2,3-bis(chloranyl)phenyl]-2-methyl-1,3,8,8a-tetrahydroisoquinoline-5,7,7-tricarbonitrile]
O=C1C(=O)N(c2ncccn2)C(c2cccc(Cl)c2)C1C(=O)c1ccco1 (stereo not drawn) [2-(3-chlorophenyl)-3-(furan-2-carbonyl)-4-hydroxy-1-pyrimidin-2-yl-2H-pyrrol-5-one]
c1ccc(-c2ccc(C3=Nc4ncnn4C(c4ccco4)C3)cc2)cc1 (stereo not drawn)
